{"source": "paper PMC11220031", "about": "“Structural basis for the inhibition mechanism of LAT1-4F2hc complex by JPH203” (Cell Discovery, 2024)", "experiment_in_all_cases": "microscale thermophoresis (MST)", "conditions_in_all_cases": "read-out: binding affinity", "key": {"[1]": {"target": "T1, LAT1–4F2hc complex (Homo sapiens, UniProt Q01650, F400V)", "T1 construct": "gene SLC7A5; full-length LAT1–4F2hc heteromeric complex, purified by size-exclusion chromatography; host and tags only in supplement; with Amino acid transporter heavy chain SLC3A2 (4F2 cell-surface antigen heavy chain)", "T1 sequence (Q01650 2-507 F400V, one chain of several)": "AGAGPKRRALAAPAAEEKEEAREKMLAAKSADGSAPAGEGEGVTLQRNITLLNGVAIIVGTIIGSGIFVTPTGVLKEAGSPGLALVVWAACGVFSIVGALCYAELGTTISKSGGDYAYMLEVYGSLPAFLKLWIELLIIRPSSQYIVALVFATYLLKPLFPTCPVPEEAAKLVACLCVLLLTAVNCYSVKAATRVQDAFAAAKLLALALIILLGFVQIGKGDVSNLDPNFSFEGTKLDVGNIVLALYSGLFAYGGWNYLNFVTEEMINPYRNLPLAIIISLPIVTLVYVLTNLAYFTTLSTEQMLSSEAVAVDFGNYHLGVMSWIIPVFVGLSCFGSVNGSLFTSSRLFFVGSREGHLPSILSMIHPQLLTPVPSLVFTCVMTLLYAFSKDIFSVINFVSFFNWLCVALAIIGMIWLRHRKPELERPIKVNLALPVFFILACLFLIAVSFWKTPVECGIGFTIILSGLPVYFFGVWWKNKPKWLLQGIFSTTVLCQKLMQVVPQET"}, "[2]": {"target": "T2, LAT2–4F2hc complex (Homo sapiens, UniProt Q9UHI5)", "T2 construct": "gene SLC7A8; LAT2–4F2hc heteromeric complex used for MST; construct, host and tags only in supplement; with Amino acid transporter heavy chain SLC3A2 (4F2 cell-surface antigen heavy chain)", "T2 sequence (Q9UHI5 1-535)": "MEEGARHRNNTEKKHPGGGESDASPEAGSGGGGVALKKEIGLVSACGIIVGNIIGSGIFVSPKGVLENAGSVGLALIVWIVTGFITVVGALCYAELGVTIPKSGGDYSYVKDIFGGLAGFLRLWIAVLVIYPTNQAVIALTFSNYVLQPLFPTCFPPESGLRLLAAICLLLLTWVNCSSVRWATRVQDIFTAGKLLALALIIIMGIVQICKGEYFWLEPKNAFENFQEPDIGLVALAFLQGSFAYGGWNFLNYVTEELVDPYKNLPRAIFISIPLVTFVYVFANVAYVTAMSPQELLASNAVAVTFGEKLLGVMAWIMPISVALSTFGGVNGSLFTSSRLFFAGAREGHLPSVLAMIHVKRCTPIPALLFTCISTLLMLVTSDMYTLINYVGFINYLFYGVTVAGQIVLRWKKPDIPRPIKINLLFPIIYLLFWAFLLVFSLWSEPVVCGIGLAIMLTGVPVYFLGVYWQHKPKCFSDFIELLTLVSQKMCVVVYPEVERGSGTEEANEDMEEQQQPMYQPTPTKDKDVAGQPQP", "T2 sequence (P08195 2-529 partner)": "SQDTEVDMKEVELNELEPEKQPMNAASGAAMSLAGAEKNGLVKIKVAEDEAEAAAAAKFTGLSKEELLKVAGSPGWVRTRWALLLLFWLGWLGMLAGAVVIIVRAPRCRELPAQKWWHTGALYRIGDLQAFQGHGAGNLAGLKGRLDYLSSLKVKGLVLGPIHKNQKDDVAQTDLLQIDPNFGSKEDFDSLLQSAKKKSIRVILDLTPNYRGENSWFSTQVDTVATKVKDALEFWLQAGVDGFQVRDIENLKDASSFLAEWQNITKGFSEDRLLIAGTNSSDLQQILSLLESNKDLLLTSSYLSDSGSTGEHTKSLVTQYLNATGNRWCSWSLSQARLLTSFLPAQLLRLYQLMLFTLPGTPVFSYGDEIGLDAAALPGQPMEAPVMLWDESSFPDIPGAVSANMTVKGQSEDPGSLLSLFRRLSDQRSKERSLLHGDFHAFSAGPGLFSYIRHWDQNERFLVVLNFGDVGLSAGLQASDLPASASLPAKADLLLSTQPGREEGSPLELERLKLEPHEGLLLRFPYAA"}, "[3]": {"target": "T3, LAT1–4F2hc complex (Homo sapiens, UniProt Q01650)", "T3 construct": "gene SLC7A5; full-length LAT1–4F2hc heteromeric complex, purified by size-exclusion chromatography; host and tags only in supplement; with Amino acid transporter heavy chain SLC3A2 (4F2 cell-surface antigen heavy chain)", "T3 sequence (Q01650 2-507, one chain of several)": "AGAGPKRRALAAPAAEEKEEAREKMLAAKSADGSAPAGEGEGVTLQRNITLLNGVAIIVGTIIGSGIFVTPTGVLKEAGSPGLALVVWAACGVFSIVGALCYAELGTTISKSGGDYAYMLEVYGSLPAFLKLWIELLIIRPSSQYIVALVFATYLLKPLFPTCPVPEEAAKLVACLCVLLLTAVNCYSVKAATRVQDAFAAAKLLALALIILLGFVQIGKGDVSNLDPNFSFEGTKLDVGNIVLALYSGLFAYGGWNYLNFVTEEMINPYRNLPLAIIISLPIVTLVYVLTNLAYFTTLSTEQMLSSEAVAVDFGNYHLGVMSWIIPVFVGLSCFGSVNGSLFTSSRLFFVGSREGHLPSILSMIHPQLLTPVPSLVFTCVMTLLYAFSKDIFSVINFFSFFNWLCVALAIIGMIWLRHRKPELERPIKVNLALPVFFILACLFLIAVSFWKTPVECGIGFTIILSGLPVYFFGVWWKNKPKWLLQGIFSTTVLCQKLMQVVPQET"}, "[4]": {"target": "T4, LAT2–4F2hc complex (Homo sapiens, UniProt Q9UHI5, F250Y)", "T4 construct": "gene SLC7A8; LAT2–4F2hc heteromeric complex used for MST; construct, host and tags only in supplement; with Amino acid transporter heavy chain SLC3A2 (4F2 cell-surface antigen heavy chain)", "T4 sequence (Q9UHI5 1-535 F250Y)": "T2 sequence (Q9UHI5 1-535) with F250Y", "T4 sequence (P08195 2-529 partner)": "T2 sequence (P08195 2-529 partner)"}, "[5]": {"target": "T5, LAT2–4F2hc complex (Homo sapiens, UniProt Q9UHI5, V391F)", "T5 construct": "gene SLC7A8; LAT2–4F2hc heteromeric complex used for MST; construct, host and tags only in supplement; with Amino acid transporter heavy chain SLC3A2 (4F2 cell-surface antigen heavy chain)", "T5 sequence (Q9UHI5 1-535 V391F)": "T2 sequence (Q9UHI5 1-535) with V391F", "T5 sequence (P08195 2-529 partner)": "T2 sequence (P08195 2-529 partner)"}, "[6]": {"target": "T6, LAT1–4F2hc complex (Homo sapiens, UniProt Q01650, Y259F)", "T6 construct": "gene SLC7A5; full-length LAT1–4F2hc heteromeric complex, purified by size-exclusion chromatography; host and tags only in supplement; with Amino acid transporter heavy chain SLC3A2 (4F2 cell-surface antigen heavy chain)", "T6 sequence (Q01650 2-507 Y259F, one chain of several)": "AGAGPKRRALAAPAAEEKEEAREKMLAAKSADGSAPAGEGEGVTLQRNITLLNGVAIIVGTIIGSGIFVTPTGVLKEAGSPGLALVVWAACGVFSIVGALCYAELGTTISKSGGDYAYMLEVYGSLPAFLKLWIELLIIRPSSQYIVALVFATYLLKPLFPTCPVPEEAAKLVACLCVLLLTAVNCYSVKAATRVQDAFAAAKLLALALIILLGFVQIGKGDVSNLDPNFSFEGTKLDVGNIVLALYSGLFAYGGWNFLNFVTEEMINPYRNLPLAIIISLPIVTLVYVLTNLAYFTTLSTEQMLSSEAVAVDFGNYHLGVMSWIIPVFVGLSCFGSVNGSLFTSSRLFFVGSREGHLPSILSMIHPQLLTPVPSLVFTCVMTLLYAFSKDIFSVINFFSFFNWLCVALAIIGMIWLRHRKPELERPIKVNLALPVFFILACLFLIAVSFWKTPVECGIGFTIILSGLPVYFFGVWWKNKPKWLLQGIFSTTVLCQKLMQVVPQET"}}, "note": "Residue numbers refer to the chain shown, from its start.", "data": [{"smiles": "Nc1cc(COc2c(Cl)cc(C[C@H](N)C(=O)O)cc2Cl)c2oc(-c3ccccc3)nc2c1", "note": "[JPH203]", "values": [{"measurement": "Kd", "setting": "[1]", "result": "6.21 ± 1.58", "unit": "µM"}, {"measurement": "Kd", "setting": "[2]", "result": "4.51 ± 1.35", "unit": "µM"}, {"measurement": "Kd", "setting": "[3]", "result": "1.48 ± 0.28", "unit": "µM"}, {"measurement": "Kd", "setting": "[4]", "result": "2.55 ± 0.96", "unit": "µM"}, {"measurement": "Kd", "setting": "[5]", "result": "1.78 ± 0.65", "unit": "µM"}, {"measurement": "Kd", "setting": "[6]", "result": "3.81 ± 1.26", "unit": "µM"}]}]}
